SMILES strings stand for the structures. Activity calls are given as the source filed them. The rule behind the calls is not given here.

Data set [1] addresses 5-hydroxytryptamine receptor 5A (Homo sapiens) (UniProt P47898). The data set can be described thus: Inhibition of human recombinant 5HT5A receptor at 10 uM by radioligand binding assay.
In data set [2] the target is Sodium-dependent noradrenaline transporter (Homo sapiens) (UniProt P23975). The data set can be described thus: Inhibition of human recombinant NET at 10 uM by radioligand binding assay.
Data set [3] has as its target T1, B2 bradykinin receptor (Homo sapiens) (UniProt P30411).
T1 sequence (whole entry): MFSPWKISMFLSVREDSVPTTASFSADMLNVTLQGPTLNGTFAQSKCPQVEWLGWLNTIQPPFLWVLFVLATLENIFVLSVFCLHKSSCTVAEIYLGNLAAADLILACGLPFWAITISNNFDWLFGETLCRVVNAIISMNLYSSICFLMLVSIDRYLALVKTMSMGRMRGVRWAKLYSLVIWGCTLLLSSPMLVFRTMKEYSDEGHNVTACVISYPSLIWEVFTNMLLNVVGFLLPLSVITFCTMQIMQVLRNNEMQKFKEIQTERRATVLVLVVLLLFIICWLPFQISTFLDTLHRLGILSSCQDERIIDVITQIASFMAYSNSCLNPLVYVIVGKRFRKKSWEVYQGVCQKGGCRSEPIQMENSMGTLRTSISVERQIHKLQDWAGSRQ
Nature of the data set: Inhibition of human recombinant B2 bradykinin receptor at 10 uM by radioligand binding assay.

Data set [4] deals with T2, C-C chemokine receptor type 1 (Homo sapiens) (UniProt P32246).
T2 sequence (whole entry): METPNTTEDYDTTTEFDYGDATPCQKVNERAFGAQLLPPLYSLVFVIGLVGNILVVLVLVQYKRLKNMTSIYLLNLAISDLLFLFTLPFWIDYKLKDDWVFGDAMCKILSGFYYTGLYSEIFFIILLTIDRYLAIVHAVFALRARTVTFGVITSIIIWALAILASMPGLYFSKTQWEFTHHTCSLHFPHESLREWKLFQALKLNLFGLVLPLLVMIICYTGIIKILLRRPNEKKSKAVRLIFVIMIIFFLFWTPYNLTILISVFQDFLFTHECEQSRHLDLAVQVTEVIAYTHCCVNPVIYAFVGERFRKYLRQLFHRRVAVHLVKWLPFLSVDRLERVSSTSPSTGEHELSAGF
Nature of the data set: Inhibition of human recombinant CCR1 receptor at 10 uM by radioligand binding assay.

Data set [5] has as its target T3, Endothelin-1 receptor (Homo sapiens) (UniProt P25101).
T3 sequence (whole entry): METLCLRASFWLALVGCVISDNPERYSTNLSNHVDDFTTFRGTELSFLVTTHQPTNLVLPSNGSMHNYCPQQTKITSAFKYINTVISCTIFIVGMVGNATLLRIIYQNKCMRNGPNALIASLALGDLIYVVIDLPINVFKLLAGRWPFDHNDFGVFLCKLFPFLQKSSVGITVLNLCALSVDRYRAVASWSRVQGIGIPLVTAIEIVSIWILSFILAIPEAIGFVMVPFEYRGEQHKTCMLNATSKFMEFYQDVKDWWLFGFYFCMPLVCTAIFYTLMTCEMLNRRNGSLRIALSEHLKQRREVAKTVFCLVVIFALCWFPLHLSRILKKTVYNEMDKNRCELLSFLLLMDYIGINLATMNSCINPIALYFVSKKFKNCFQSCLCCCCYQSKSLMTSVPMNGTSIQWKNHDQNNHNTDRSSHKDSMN
Nature of the data set: Inhibition of human recombinant ETA receptor at 10 uM by radioligand binding assay.

For data set [6], the target named is Neuropeptide Y receptor type 2 (Homo sapiens) (UniProt P49146). The data set can be described thus: Inhibition of human recombinant Y2 receptor at 10 uM by radioligand binding assay.
The test system of data set [7] is 5-hydroxytryptamine receptor 2A. The data set can be described thus: Inhibition of human recombinant 5HT2A receptor at 10 uM by radioligand binding assay.
Data set [8] deals with Voltage-gated potassium channel. The data set can be described thus: Inhibition of human recombinant Kv channel at 10 uM by radioligand binding assay. In kind it is protein assay.
A further data set concerns A549. Nature of the data set: Cytotoxicity against human A549 cells. The format is functional, cell-based.

5-hydroxytryptamine receptor 5A (Homo sapiens), sequence (P47898 whole entry): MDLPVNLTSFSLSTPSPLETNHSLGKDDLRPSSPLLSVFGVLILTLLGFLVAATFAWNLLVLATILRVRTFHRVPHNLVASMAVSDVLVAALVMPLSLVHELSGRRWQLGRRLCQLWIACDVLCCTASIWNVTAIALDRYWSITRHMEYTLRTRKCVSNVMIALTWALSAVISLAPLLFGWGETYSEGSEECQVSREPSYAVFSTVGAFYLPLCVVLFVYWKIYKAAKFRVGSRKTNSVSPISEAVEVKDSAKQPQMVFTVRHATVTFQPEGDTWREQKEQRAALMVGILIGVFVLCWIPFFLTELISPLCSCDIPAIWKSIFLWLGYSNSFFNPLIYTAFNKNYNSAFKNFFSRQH
Neuropeptide Y receptor type 2 (Homo sapiens), sequence (P49146 whole entry, looked up): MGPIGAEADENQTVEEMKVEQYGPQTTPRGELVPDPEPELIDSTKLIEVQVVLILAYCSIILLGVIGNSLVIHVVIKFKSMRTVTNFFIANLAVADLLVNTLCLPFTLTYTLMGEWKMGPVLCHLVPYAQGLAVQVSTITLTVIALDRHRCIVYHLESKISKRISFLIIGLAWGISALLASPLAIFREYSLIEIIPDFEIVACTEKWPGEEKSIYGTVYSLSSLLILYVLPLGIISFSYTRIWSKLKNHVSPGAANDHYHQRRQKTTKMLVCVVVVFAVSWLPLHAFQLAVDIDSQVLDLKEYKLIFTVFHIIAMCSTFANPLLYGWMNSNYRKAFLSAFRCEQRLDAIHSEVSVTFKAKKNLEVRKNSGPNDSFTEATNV
Sodium-dependent noradrenaline transporter (Homo sapiens), sequence (P23975 whole entry): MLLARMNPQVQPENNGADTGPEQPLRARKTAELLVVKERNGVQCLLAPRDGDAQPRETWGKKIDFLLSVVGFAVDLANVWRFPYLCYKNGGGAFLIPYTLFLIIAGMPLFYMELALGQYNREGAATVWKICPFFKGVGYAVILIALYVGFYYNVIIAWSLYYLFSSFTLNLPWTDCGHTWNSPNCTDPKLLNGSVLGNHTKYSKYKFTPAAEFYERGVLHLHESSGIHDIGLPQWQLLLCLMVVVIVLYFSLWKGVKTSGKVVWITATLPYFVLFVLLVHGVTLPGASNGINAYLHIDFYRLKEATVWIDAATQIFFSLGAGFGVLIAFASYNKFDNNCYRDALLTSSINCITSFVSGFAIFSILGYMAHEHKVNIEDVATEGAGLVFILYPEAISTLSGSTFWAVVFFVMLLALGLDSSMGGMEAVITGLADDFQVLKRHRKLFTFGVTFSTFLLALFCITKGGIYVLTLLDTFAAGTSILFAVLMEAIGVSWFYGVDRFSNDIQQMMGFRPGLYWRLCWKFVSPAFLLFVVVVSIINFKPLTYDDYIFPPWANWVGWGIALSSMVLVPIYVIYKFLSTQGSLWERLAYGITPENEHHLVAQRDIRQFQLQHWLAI

Consider `COc1ccc(-c2ccn(-c3ccc(O)c([N+](=O)[O-])c3)c2-c2ccc(C(N)=O)cc2C)cc1`, for which the inhibition result in data set [1], in data set [2], in data set [3], in [4], in data set [5] and in data set [6] was “Active” throughout. Also, the inhibition result in [7] was “Active”. For the same compound, the “inhibition (INH)” value in data set [8] is “Active”.
As to `Cc1cc(C(N)=O)ccc1-c1c(CCC(=O)O)ccn1-c1ccc(-n2ccnc2)cc1`, the inhibition result in data set [1], in data set [2], in data set [3], in [4], in data set [5] and in data set [6] was “inactive” each time. In addition, in [7], the inhibition result was “inactive”. Besides, in the data set on A549, the IC50 is > 250 µM. Also, the “inhibition (INH)” value in [8] is listed as “Not Active”.
Consider `Cc1cc(C(N)=O)ccc1-c1c(-c2ccc(-n3ccnc3)cc2)ccn1CCC(=O)O`, for which the inhibition result in data set [1], in data set [2], in data set [3], in [4], in [5] and in data set [6] was “inactive” throughout. Besides, the inhibition entry in [7] was “inactive”. Further, in data set [8], the “inhibition (INH)” value was “Not Active”.
As to `Cc1cc(C(N)=O)ccc1-n1c(CCC(=O)O)ccc1-c1ccc(-n2ccnc2)cc1` [N6022], the inhibition result in [1], in [2], in data set [3], in data set [4], in data set [5] and in data set [6] was “inactive” in each case. Further, the “inhibition (INH)” value in data set [8] is “Not Active”.
As for `COc1ccc(-c2ccn(-c3ccc(C(=O)O)c(O)c3)c2-c2ccc(C(N)=O)cc2C)cc1`, the inhibition result in [1], in data set [2], in [3], in data set [4], in data set [5] and in data set [6] was “Active” each time. The inhibition entry in data set [7] is “Active”. Besides, the “inhibition (INH)” value in [8] is “Active”.
